Reference: patent US5104859A, “Continuous administration of adenosine to reduce pulmonary vascular resistance” (priority 1990, dated 1992)
“Also recorded” adds a separate entry of the source.

Key:
[1] = parameters: species or system human; settings: in vivo
Experimental: The mean hypotensive period was 32±8 min.

[2] = system: systemic arterial blood pressure and central hemodynamics; assay: Controlled hypotension in surgical patients without dipyridamole pretreatment; assay type: in vivo, human
Experimental: For this indication, adenosine typically is administered intravenously via the left basilic vein or via a central vein in an amount (or at a rate) sufficient to achieve the desired hypotensive effect.
The actual plasma levels of adenosine employed for controlled hypotension will vary, depending upon such factors as the particular patient, the age of the patient and the desired degree of hypotension. […] The hypotensive effect of adenosine was then studied upon this hypotensive dose of dipyridamole.
Subsequent to the tests described above, a 20 mM solution of adenosine in isotonic saline was administered to 50 surgical patients employing techniques similar to those described, except that pretreatment with dipyridamole was omitted.

[3] = system: blood pressure; assay: Control of hypertensive crisis during surgery; assay type: in vivo, human; settings: about 0.1 to about 0.2 mg/kg/min
Experimental: Continuous infusion of adenosine can also be employed to control hypertensive crises occurring during surgery. Such crises can occur, for example, as a result of release of catecholamines during surgery on pheochromocytoma--a tumor characterized by the presence of catecholamine--which can cause pulmonary edema and death. At present, this situation is treated prophylactically by pre-administration of alpha- and beta-adrenoceptor blockers or vasodilators, but the effect is often insufficient. […] Amounts of adenosine which are effective in controlling such hypertensive crises will depend on the degree of hypertension. However, as a general rule they are about half of the amounts found useful for controlled hypotension, i.e., in the range of from about 0.1 to about 0.2 mg adenosine per kilogram of body weight per minute.

[4] = system: coronary bypass grafts; assay: Coronary bypass graft flow and hemodynamics during coronary artery surgery
Experimental: It has been reported that coronary artery grafts occlude more frequently during the postoperative period when low graft-flow values are obtained during surgery. See Groudin et al, Circulation, 42: Suppl 3: 106-111 (1970).
In a study designed to investigate the use of adenosine to inhibit occlusion of coronary grafts, nine patients (age 45-65, all taking beta-blockers) were studied during coronary artery surgery. After premedication, morphine (10-15 mg) and scopolamine (0.4-0.6 mg), anesthesia was induced by fentanyl (30 mcg/kg.b.w.). Pancuronium (0.1 mg/kg b.w.) was given to facilitate endotracheal intubation. Anesthesia was maintained with fentanyl 0.5 mg/hour, N2 O (50%) in oxygen and droperidol (0.1 mg/kg b.w.). During bypass thiomebumal (5 mg/kg b.w.) was given. Nitrous oxide was not used after bypass. Extracorporeal circulation (ECC) was performed with a roller pump and a Shiley bubble oxyqenator primed with crystalloid solution. ECG (modified V5), an arterial line and a Swan-Ganz Catheter were used for monitoring and for hemodynamic measurements. Blood flow in bypass grafts (n=15, internal mammary and venous grafts), was measured with appropriate sized square wave electromagnetic flow probes (Nycotron 732). The study was performed 20-30 minutes after the termination of ECC. After a control period (5 min), adenosine (5.3 mg/ml. clinical solution) was continuously infused in a central vein in order to induce approximately 10% reduction of mean arterial blood pressure (about 30 to 50 ug per kg. per min.). Graft flow was continuously measured before and during a 10 or 30 minute infusion of adenosine and finally during the following 5 minute control period. Data are expressed as mean ±SEM and differences were tested with Student's paired t-test against the preceding period.

[5] = Plasma adenosine and metabolite concentrations during cardiopulmonary bypass (HPLC); settings: in vivo; for concentration: human, iv
Experimental: In six cases the plasma adenosine levels were determined by high performance liquid chromatography (HPLC) (Fredholm and Sollevi, J. Physiol. (London), 313: 351-67 (1981) in arterial and in venous (venous lines to the oxygenator) blood. The adenosine metabolites inosine, hypoxanthine and uric acid were also determined by HPLC. The samples were collected as previously described (Sollevi, Acta. Physiol. Scand., 121: 165-72 (1984) at the intervals of 10, 20, 40 and 80 minutes during CPB and 20 minutes after CPB.
Statistical significance (controls v. adenosine group) was determinted with Student's t-test for unpaired data. For significance within the groups the Wilcoxon Rank Sum test was used. p […] 0.05 was regarded as significant.

[6] = system: cardiovascular system; assay: General activity profile of adenosine by continuous infusion; settings: for tachyphylaxis / rebound hypertension (words): hypotension

Nc1ncnc2c1ncn2[C@@H]1O[C@H](CO)[C@@H](O)[C@H]1O [adenosine]
ECG the day after the operation [1]: unchanged
mean arterial blood pressure achieved ([2]; about 0.2 to about 0.35 mg/kg/min): 40 to 50 mm Hg
mean arterial blood pressure achieved without significant side effects ([2]; as low as, cannula in left radial artery): 40 millimeters of mercury
effective adenosine dose in man relative to dog ([2]; man 0.2 to 0.35 mg/kg/minute): 30 to 50 times lower
blood pressure in catecholamine-induced hypertensive crisis [3]: rapidly restore blood pressure to normal
graft blood flow, post-operative low dose ([4]; 0.02 to 0.05 mg/kg/min, words): increase graft blood flow
graft flow ([4]; 30-50 ug per kg per min): doubled graft flow; also recorded: marked and reproducible increase in graft flow
myocardial work ([4]; 30-50 ug per kg per min): without increased myocardial work
arrhythmias ([4]; 49±4 ug/kg/minute): No arrhythmias were observed
heart rate, mean pulmonary artery pressure, central venous pressure, stroke index and left ventricular stroke work index ([4]; 49±4 ug/kg/minute): remained essentially unchanged
increase of cardiac output ([4]; 49±4 ug/kg/minute): 12%
reduction of mean arterial pressure ([4]; 49±4 ug/kg/minute): 12%
Cardiac output ([4]; control after adenosine): 5.3 ± 0.3 L/min
Left Ventricular Stroke Index ([4]; control after adenosine): 0.49 ± 0.04 Joule/n^2
Mean Arterial Pressure ([4]; control after adenosine): 85 ± 3 mmHg
Pulmonary Artery Pressure (mean) ([4]; control after adenosine): 19.9 ± 1.0 mmHg
RAP (mean) ([4]; control after adenosine): 5.8 ± 0.7 mmHg
Stroke Index ([4]; control after adenosine): 39.6 ± 2.5 ml/m^2
heart rate ([4]; control after adenosine): 81 ± 6 beats/min.
graft flow ([4]; control after adenosine, n = 15): 39 ± 5 mL/min
Cardiac output ([4]; during adenosine): 5.6 ± 0.3 L/min
Left Ventricular Stroke Index ([4]; during adenosine): 0.41 ± 0.03 Joule/n^2
Mean Arterial Pressure ([4]; during adenosine): 74 ± 3 mmHg
Pulmonary Artery Pressure (mean) ([4]; during adenosine): 18.8 ± 1.2 mmHg
RAP (mean) ([4]; during adenosine): 5.3 ± 0.4 mmHg
Stroke Index ([4]; during adenosine): 38.8 ± 2.0 ml/m^2
heart rate ([4]; during adenosine): 82 ± 15 beats/min.
graft flow ([4]; during adenosine, n = 15): 77 ± 7 mL/min
graft flow rate on termination of adenosine ([4]; in vivo): restored to its original value
atrio-ventricular conductance at low dose ([4]; post-operative low doses, words): without significant effect on atrio-ventricular conductance
concentration [5]: 2000 to 10000 nM
concentration ([5]; 20 min): 400 ± 100 nM
Arterial concentration [5]: 0.3 ± 0.1 µM
arterial levels [5]: approximately doubled
toxicity ([6]; amounts used in accordance with the invention): essentially non-toxic
after-load and pre-load ([6]; continuous infusion): little or no effect on cardiac pre-load; also recorded: reduce after-load, without having significant effect on pre-load
tachyphylaxis / rebound hypertension (words) [6]: does not cause tachyphylaxis; also recorded: rebound hypertension is avoided
tachyphylaxis / rebound hypertension (words) ([6]; listed as Adenosine): without the occurrence of significant tachyphylaxis
heart rate on after-load reduction ([6]; in vivo): without significantly increasing heart rate
